In patent publication US11879140B2, “P21 mRNA targeting DNAzymes” (1E Therapeutics Ltd., priority 2020, dated 2024):

Assays:
mouse p21 mRNA = test: In vitro cleavage of mouse p21 mRNA; type: biochemical; details: in vitro cleavage of mouse p21 mRNA (SEQ ID NO: 3)
[1] = test system: Bleomycin-induced pulmonary fibrosis model mice; test: Bleomycin-induced idiopathic pulmonary fibrosis (IPF) mouse model; type: in vivo
Procedure: Total RNA from lung samples (post-caval lobe) was extracted using RNAiso (Takara Bio. Japan) according to manufacturer protocol. Reverse transcription was performed using MMLV-RT (Invitrogen). Real-time PCR was performed using TB Green™ Premix Ex Taq™ II (Takara Bio). To calculate the relative mRNA expression level, the expression of each gene (Collagen Type 1) were be normalized to that of reference gene 36B4 (gene symbol: Rplp0).
C57/B6 mice were induced to develop pulmonary fibrosis by a single intra-tracheal administration of Bleomycin hydrochloride (Nippon Kayaku. Japan) in saline at a dose of 3.0 mg/kg, in a volume of 50 μL per animal using Microsprayer® (Penn-Century. USA). Mice that served as the Sham control group were intratracheally administered with saline, instead of the Bleomycin. Mice were initially randomized based on body weight before Bleomycin instillation. At second randomization, Bleomycin-induced pulmonary fibrosis model mice were divided based on the body weight changes on the day before the start of treatment at Day 7. DNAzyme treatment was performed intranasally with 200 μg of DNAzyme resuspended in 50 μL PBS per treatment. PBS intra-nasal treatment served as control. Mice were treated daily following Bleomycin instillation with either DNAzyme or control from day 1 to 20 (prophylactic regimen) or from day 7 to 20 (therapeutic regimen). Body weight, viability, clinical signs and behavior were monitored daily. Mice were sacrificed three weeks following Bleomycin instillation.
Right lung tissues prefixed in 10% neutral buffered formalin were embedded in paraffin and sectioned at 4 μm.
For immunohistochemistry (IHC) staining, sections were subjected to heat induced epitope retrieval (HIER) Following HIER, the sections were incubated rabbit monoclonal anti-p21 antibody [EPR18021] (Abcam) 1:2000 or rabbit monoclonal anti-α-SMA antibody [EPR5368] (Abcam) 1:2000. Section bound primary antibody was detected employing horseradish peroxidase labeled anti-rabbit IgG polymeric reagent.
For Masson's Trichrome staining, the sections were deparaffinized and rehydrated, followed by re-fixation with Bouin's solution for 15 minutes. The sections were stained in Weigert's iron Hematoxylin working solution (Sigma-Aldrich), Biebrich scarlet-Acid fuchsin solution (Sigma-Aldrich), Phosphotungstic/phosphomolybdic Acid solution, Aniline blue solution and 1% Acetic Acid solution (Sigma-Aldrich). For quantitative analysis of lung fibrosis area, bright field images of Masson's Trichrome-stained sections were randomly captured using a digital camera (DFC295; Leica, Germany) at 100-fold magnification, and the subpleural regions in 20 fields/mouse were evaluated according to the criteria for grading lung fibrosis [Ashcroft. T. et al., Simple method of estimating severity of pulmonary fibrosis on a numerical scale. J Clin. Pathol. (1988) 41: 467-470]. All sections were blindly analyzed by an experimenter.
Digital images were analyzed by a custom MATLAB algorithm, using Image Processing Toolbox. First, a binary image was calculated, in order to distinguish background pixels from the lobe pixels. Next, a morphological close operation on the image was preformed, fill of the holes, and extraction of the largest connected component, in order to detect all lobe area, including alveoli. The density of the lobe was defined by the ratio between the stained pixels to the total pixels in the lobe area. For Masson's Trichrome staining, blue pixels were detected and separated from purple staining by specifying RGB (red, green, and blue) constraints. The Collagen percentage in each image was defined by the ratio between the blue pixels to the total pixels in the lobe area.
For p21 staining, an image segmentation algorithm was performed to identify all nuclei in image. Next, cells positive to p21 were detected by RGB and size constraints. […]

human p21 mRNA = test: In vitro cleavage assay of human p21 mRNA; type: biochemical; details: in vitro cleavage of p21 mRNA (SEQ ID NO: 1); RNA substrate 500 nM, 37° C. 60 min, agarose gel
Text: Total RNA was isolates from senescent IMR-90 cells using Nucleospin® RNA kit (Macherey-Nagel™). cDNA was synthesized with gene-specific reverse primers using M-MLV Reverse Transcriptase (Promega), according to the manufacturer's protocol. To generate template for in vitro transcription (IVT) reaction, the cDNA was PCR amplified using KAPA Taq EXtra HotStart® ReadyMix™ PCR Kit (R&D). PCR product was run on 1.5% agarose TAE gel, the correct band size was cut and DNA was cleaned using Wizard® SV Gel and PCR Clean-Up System kit (Promega). IVT was performed using HiScribe™ T7 High Yield RNA Synthesis Kit (NEB). Samples were then treated with DNase I (New England Biolabs) and incubated for 15 minutes at 37° C. IVT product was run on 1.5% agarose TBE gel, the correct band size was cut and RNA was cleaned using QIAquick® Gel Extraction Kit (Qiagen). See primer sequences in Table 1, below.
RNA substrate was diluted with Molecular Biology Grade Water (Biological Industries) and used in in vitro cleavage assay. A 20 μl reaction system comprising RNA substrate (final concentration 500 nM), 2 μl 10× reaction buffer (50 mM Tris-HCl pH 7.4, 100 mM NaCl, 10 mM MgCl2) and 1 μl DNAzyme (10 μM) (as depicted in Table 2, below) was mixed. Reactions were incubated at 37° C. for 60 min. 2×RNA L.D. (Thermo Fisher) was added to each sample. Samples were heated at 70° C. for 30 sec, centrifuged and loaded onto 1.5% agarose TBE gels. Quantification was performed using Image Lab software (Bio Rad).

[2] = test system: senescent human IMR-90 fibroblast cells; type: cell-based; details: increasing concentrations (FIGS. 6A-C, 12A-C)
In short: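 Senescence was induced by etoposide at […] for 48 h, with the phenotype present 7 days later, or by H-RasG12 or long-term passaging. Cells grown at 5% oxygen were transfected with DNAzymes by Lipofectamine 2000, and survival was scored 3-6 days later by PrestoBlue relative to Lipofectamine-only control.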

[3] = test system: senescent lung fibroblasts (WI-38); test: Viability assay on WI-38 cells; type: cell-based, human; details: FIG. 6D
Procedure: (§1) Human IMR-90, BJ, WI-38 fibroblasts and REC epithelial cells were obtained from ATCC and grown at 5% oxygen. IMR-90 and REC cells were maintained in DMEM medium comprising 100 units per ml of penicillin, […] of streptomycin and 10% fetal bovine serum. BJ and WI-38 cells were maintained in EMEM medium comprising 100 units per ml of penicillin, […] of streptomycin, 10% fetal bovine serum, 1% Pyruvate, 1% L-Glutamine, mLFs were isolated according to standard procedures [Seluanov, A., et al. J Vis Exp (2010) (44):2033] and grown at 5% oxygen. Cells were maintained in EMEM medium comprising 100 units per ml of penicillin, […] of streptomycin and 15% fetal bovine serum.
(§2) DNA damage induced senescence (DIS) was induced by etoposide treatment (E1383, Sigma) at a concentration of […] for IMR-90, BJ, and WI-38, 16 μM for mLF and 12.5 μM for REC for a duration of 48 hours. Cells acquired the senescence phenotype 7 days post treatment (determined by SA-beta-gal staining).
(§3) Primary target cells (IMR-90, BJ, […]) were plated in 24-well plates at 100,000 cells per well. Cells were transfected with different concentrations of DNAzymes (as depicted in Table 2, below) using Lipofectamine™ 2000 (Invitrogen) according to manufacturer instructions. […]

[4] = test system: senescent epithelial kidney cells (REC); test: Viability assay on REC cells; type: cell-based, human; details: FIG. 6D
Procedure: as §1, §2, §3

For “Dz_639: targets mouse p21; SEQ ID NO: 85: GGCCGAAGAggctagctacaacgaGGGGAAGAG; used in IPF model (GGCCGAAGAGGCTAGCTACAACGAGGGGAAGAG; chemistry not given here)”, the Validated cleavage (mouse p21 mRNA) was “effective”, the “oxygen saturation in the blood” value ([1]; FIG. 14A) was “significantly elevated” and the “number of p21 expressing cells in the lung tissue” value ([1]; both treatment regimens, IHC day 21 (FIG. 14B)) was “reduction”. For the same substance, the Hydroxyproline levels ([1]; left lung, day 21, therapeutic and preventative (FIG. 14E)) was “reduced”, the Ashcroft fibrosis score ([1]; lung sections day 21, compared to bleomycin treated group, p=0.0206 (FIG. 10B)) was “lower” and the survival rate ([1]; over 21 days, both therapeutic and preventative regimens, vehicle group 75% (FIG. 10D)) was 100%. For the same substance, the “expression levels of senescence related genes and SASP factors” value ([1]; post caval lobe, day 21 (FIG. 14C)) was “significantly reduced”, the lung tissue density ([1]; therapeutic and preventive groups (FIG. 14F)) was “reduced” and the “collagen levels (Masson's Trichrome)” value ([1]; therapeutic and preventive regimens (FIG. 14D)) was “significantly reduced”.

With “DNAzyme 1114: SEQ ID NO: 40: AGGAGAACAggctagctacaacgaGGGAUGAGG (DNA AGGAGAACAGGCTAGCTACAACGAGGGAUGAGG; DNA, backbone, methylation of C and T or U not given here)” the Validated cleavage (human p21 mRNA) was “validated for mediating cleavage of p21 mRNA”, the “selectivity of killing, senescent versus growing IMR-90 cells” value [2] was “maintained over a large range of concentrations” and the “elimination of senescent but not growing WI-38 cells” value [3] was “effectively eliminated”. For the same substance, the “elimination of senescent but not growing REC cells” value [4] was “effectively eliminated”.
